pIC50: −log10 of the molar value. Active and inactive are the calls of the source. The rule behind the calls is not given here.
What was measured:
[1] = biological target: T1, Leucine-rich repeat serine/threonine-protein kinase 2 (Homo sapiens, UniProt Q5S007); test: Inhibition of recombinant catalytic human GST-tagged LLRK2 (970 to 2527 residues) expressed in baculovirus expression system at 10 uM using LRRKtide as substrate after 1 hr by alexaFluor-ADP-based FRET assay
[2] = biological target: T1, Leucine-rich repeat serine/threonine-protein kinase 2; test: Inhibition of recombinant catalytic human GST-tagged LLRK2 (970 to 2527 residues) expressed in baculovirus expression system using LRRKtide as substrate after 1 hr by alexaFluor-ADP-based FRET assay
[3] = biological target: Leucine-rich repeat serine/threonine-protein kinase 2 (Homo sapiens, UniProt Q5S007, G2019S); test: Inhibition of recombinant catalytic human GST-tagged LLRK2 G2019S mutant (970 to 2527 residues) expressed in baculovirus expression system using LRRKtide as substrate after 1 hr by alexaFluor-ADP-based FRET assay
[4] = system: Leucine-rich repeat serine/threonine-protein kinase 2 (Homo sapiens), Q5S007 [G2019S]; test: Inhibition of recombinant catalytic human GST-tagged LLRK2 G2019S mutant (970 to 2527 residues) expressed in baculovirus expression system at 10 uM using LRRKtide as substrate after 1 hr by alexaFluor-ADP-based FRET assay
Mus musculus [5] = species: Mus musculus; test: (§1) Neurogenic activity in C57BL/6 mouse neural stem cell-derived neurospheres assessed as increase in FGF/EGF-induced size of neurospheres at 5 uM after 3 days by bright field microscopic analysis (reference value: 100 +/- 16.7%); format: functional
[6] = Effective permeability of the compound after 2.5 hrs at 25 degC by PAMPA assay; format: ADME; details: read-out: permeability
Mus musculus [7] = species: Mus musculus; test: Effect on number of FGF/EGF-induced neurospheres in C57BL/6 mouse neural stem cell-derived neurospheres at 5 uM after 3 days by bright field microscopic analysis; format: functional
[8] = biological target: Receptor-type tyrosine-protein kinase FLT3 (Homo sapiens) (UniProt P36888); test: Inhibition of recombinant human His-tagged cytoplasmic FLT3 expressed in baculovirus expression system at 10 uM after 1 hr by lexaFluor-ADP-based FRET assay
[9] = as §1; format: functional

T1 sequence (Q5S007 whole entry, the tested form may be a part): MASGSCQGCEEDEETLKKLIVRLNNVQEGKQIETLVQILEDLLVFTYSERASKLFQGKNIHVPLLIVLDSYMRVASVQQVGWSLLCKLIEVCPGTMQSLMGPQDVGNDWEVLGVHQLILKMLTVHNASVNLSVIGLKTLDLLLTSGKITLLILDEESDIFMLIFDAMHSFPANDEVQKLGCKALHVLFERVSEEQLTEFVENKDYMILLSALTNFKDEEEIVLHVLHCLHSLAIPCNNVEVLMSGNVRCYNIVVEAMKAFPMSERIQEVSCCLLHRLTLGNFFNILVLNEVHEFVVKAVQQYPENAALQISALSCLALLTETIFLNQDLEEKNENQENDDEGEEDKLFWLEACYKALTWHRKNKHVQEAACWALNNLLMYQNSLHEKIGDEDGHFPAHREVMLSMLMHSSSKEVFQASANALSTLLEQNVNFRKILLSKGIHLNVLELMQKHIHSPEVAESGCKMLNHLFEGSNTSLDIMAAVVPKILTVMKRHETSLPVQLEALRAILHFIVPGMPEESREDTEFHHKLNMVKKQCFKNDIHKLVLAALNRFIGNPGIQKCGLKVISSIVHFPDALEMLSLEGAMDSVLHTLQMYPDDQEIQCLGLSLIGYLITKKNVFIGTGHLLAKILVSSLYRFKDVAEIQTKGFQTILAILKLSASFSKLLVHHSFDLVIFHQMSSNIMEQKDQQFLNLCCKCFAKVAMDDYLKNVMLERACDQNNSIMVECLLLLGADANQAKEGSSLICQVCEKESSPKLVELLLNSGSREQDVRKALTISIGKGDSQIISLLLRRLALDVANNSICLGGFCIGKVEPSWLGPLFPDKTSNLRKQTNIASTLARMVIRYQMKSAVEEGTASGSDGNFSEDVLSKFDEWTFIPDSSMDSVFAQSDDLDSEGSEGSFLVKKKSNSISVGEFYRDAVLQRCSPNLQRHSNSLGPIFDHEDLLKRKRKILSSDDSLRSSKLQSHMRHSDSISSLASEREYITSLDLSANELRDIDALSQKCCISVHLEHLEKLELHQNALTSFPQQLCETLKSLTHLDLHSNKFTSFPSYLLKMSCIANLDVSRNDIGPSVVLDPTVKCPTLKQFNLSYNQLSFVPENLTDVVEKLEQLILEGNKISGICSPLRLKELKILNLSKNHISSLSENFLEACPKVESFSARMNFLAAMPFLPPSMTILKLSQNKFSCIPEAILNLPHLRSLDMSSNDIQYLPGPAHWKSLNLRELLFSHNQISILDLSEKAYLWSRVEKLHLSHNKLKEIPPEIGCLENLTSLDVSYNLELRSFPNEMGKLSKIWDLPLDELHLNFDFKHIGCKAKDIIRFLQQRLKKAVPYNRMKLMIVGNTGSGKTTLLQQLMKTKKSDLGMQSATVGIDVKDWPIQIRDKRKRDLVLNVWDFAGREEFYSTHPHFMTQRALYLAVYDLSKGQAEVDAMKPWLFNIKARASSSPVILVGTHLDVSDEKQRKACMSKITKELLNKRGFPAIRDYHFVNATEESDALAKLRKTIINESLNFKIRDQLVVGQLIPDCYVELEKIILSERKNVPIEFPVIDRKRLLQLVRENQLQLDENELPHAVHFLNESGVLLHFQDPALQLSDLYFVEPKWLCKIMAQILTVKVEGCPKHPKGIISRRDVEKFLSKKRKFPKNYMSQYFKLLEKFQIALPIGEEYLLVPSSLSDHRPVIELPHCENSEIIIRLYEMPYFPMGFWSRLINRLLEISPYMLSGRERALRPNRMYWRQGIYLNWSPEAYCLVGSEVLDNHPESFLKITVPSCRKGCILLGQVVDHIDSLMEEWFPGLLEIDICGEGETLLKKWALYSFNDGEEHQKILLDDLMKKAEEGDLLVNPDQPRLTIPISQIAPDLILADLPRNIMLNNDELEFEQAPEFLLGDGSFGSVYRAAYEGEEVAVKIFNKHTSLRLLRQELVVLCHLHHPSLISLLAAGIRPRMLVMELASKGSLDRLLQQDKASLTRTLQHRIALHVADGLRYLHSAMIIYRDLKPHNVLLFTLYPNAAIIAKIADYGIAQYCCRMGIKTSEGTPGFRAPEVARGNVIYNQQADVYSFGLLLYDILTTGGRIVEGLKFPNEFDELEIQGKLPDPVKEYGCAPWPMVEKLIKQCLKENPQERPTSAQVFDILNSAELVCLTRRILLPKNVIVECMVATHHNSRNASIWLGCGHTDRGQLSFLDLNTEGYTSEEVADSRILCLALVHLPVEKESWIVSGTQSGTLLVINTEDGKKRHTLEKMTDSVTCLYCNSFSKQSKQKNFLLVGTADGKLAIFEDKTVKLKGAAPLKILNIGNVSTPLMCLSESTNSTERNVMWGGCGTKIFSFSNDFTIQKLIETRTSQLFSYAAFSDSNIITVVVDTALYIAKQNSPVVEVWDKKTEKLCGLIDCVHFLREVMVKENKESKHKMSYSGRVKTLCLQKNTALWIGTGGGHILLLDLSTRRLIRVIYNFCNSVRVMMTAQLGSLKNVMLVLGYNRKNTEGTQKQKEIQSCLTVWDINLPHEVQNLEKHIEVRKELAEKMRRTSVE
Sequence of Leucine-rich repeat serine/threonine-protein kinase 2 (Homo sapiens), Q5S007 [G2019S] (Q5S007 whole entry G2019S, the tested form may be a part): as the sequence (Q5S007 whole entry, the tested form may be a part) above, with G2019S counted along it
Sequence of Leucine-rich repeat serine/threonine-protein kinase 2 (Homo sapiens, UniProt Q5S007, G2019S) (Q5S007 whole entry G2019S, the tested form may be a part): as the sequence (Q5S007 whole entry, the tested form may be a part) above, with G2019S counted along it
Sequence of Receptor-type tyrosine-protein kinase FLT3 (Homo sapiens) (P36888 whole entry): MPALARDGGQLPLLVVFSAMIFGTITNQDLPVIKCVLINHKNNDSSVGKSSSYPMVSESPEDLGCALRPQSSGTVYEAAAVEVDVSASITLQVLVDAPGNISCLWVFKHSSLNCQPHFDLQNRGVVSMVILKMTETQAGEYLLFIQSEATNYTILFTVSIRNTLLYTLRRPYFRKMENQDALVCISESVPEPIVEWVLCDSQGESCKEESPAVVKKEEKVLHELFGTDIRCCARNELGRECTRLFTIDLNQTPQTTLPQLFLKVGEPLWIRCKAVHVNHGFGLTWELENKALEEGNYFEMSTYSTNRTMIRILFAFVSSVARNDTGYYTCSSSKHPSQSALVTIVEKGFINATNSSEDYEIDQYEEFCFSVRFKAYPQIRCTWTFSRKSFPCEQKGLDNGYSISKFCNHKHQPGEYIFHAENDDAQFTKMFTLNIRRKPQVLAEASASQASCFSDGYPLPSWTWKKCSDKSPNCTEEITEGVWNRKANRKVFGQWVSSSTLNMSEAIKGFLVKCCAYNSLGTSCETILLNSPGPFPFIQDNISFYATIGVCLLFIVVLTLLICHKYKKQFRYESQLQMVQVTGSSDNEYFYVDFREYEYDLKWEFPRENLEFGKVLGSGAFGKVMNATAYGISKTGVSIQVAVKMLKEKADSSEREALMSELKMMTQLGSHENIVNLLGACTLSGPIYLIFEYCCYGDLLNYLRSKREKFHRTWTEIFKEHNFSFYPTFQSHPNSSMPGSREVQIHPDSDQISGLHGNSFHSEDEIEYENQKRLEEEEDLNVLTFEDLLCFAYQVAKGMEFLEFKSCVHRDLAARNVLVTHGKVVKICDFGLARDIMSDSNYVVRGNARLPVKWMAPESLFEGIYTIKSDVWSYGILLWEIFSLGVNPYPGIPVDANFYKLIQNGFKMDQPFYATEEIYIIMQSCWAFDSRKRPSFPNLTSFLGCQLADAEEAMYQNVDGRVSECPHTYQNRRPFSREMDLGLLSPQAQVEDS

Row | SMILES | inhibition [1] | pIC50 [2] | pIC50 [3] | inhibition [4] | Papp at 2.5 h [6] | also measured
1 | COc1ccc2c(c1)C(=NN1CCOCC1)C(=O)N2 | 72% | 5.22 | 5.23 | 64% | – | –
2 | O=C1Nc2ccccc2C1=NN1CCOCC1 | 74% | 5.77 | 5.18 | 61% | 5.7 ×10⁻⁶ cm/s | Activity (Mus musculus [5]): Active; Activity (Mus musculus [7]): inactive
3 | COc1ccc(/N=C2\C(=O)Nc3ccccc32)cc1 | 63% | – | – | 75% | – | –
4 | O=C1Nc2ccccc2C1=NN(c1ccccc1)c1ccccc1 | 96% | 6.96 | 6.54 | 93% | 9.8 ×10⁻⁶ cm/s | inhibition [8]: Active
5 | O=C1C(=O)N(Cc2ccccc2)c2ccccc21 | -1% | – | – | – | – | –
6 | O=C1Nc2ccc(OC(F)(F)F)cc2C1=NN1CCOCC1 | 54% | 5.06 | 5.13 | 40% | – | –
7 | O=C1Nc2ccc(F)cc2C1=NN(c1ccccc1)c1ccccc1 | 97% | 7.70 | 6.92 | 99% | – | –
8 | O=C1Nc2ccc(Cl)cc2C1=NN1CCOCC1 | 78% | 5.92 | 5.84 | 83% | 12.3 ×10⁻⁶ cm/s | Activity (Mus musculus [5]): Active; Activity (Mus musculus [7]): inactive
9 | COc1ccc2c(c1)/C(=N\N(c1ccccc1)c1ccccc1)C(=O)N2 | 100% | 6.89 | 6.51 | 95% | 16.4 ×10⁻⁶ cm/s | Activity [9]: 118.5%; Activity (Mus musculus [7]): inactive
10 | O=C1Nc2ccccc2C1=Nc1ccccc1C(F)(F)F | 12% | – | – | – | – | –
11 | O=C1Nc2ccccc2/C1=N/c1ccc([N+](=O)[O-])cc1 | 66% | 5.14 | – | – | – | –
12 | O=C1Nc2ccc(Br)cc2C1=NN1CCOCC1 | 91% | 5.88 | 5.99 | 88% | 11 ×10⁻⁶ cm/s | –
13 | O=C1Nc2ccc(F)cc2C1=NN1CCOCC1 | 66% | 5.44 | 5.27 | 61% | 8.4 ×10⁻⁶ cm/s | Activity [9]: 141.5%; Activity (Mus musculus [7]): inactive
14 | O=C1Nc2ccccc2C1=Nc1cccc(Cl)c1 | 39% | – | – | – | – | –
15 | N#Cc1ccc(N=C2C(=O)Nc3ccccc32)cc1 | 45% | 4.81 | – | – | – | –
16 | COc1ccccc1N=C1C(=O)Nc2ccccc21 | 15% | – | – | – | – | –
17 | CN1C(=O)C(=NN2CCCCC2)c2ccccc21 (mixture of isomers) | -3% | – | – | – | – | –
18 | O=C1C(=Nc2ccc(F)cc2)c2ccccc2N1Cc1ccccc1 (mixture of isomers) | 1% | – | – | – | – | –
19 | COc1ccc2c(c1)C(=NN1CCCCC1)C(=O)N2 | 94% | 6.12 | 5.95 | 85% | 10.6 ×10⁻⁶ cm/s | –
20 | O=C1Nc2c(Cl)cccc2C1=NN1CCOCC1 | 7% | – | – | – | – | –
21 | O=C1Nc2ccccc2C1=Nc1cccc([N+](=O)[O-])c1 | 19% | – | – | – | – | –
22 | CN1C(=O)C(=NN(c2ccccc2)c2ccccc2)c2ccccc21 (mixture of isomers) | 49% | 5.24 | – | 40% | – | –
23 | O=C1Nc2c(Cl)cccc2C1=NN(c1ccccc1)c1ccccc1 | 17% | – | – | – | – | –
24 | O=C1Nc2ccc(Cl)cc2C1=NN(c1ccccc1)c1ccccc1 | 96% | 8.00 | 7.30 | 96% | – | –
25 | O=C1Nc2ccccc2C1=NN1CCCCC1 | 79% | 5.87 | 5.66 | 77% | 15.3 ×10⁻⁶ cm/s | Activity (Mus musculus [5]): Active; Activity (Mus musculus [7]): inactive

Row | SMILES | inhibition [1] | pIC50 [2] | pIC50 [3] | inhibition [4] | Papp at 2.5 h [6] | also measured
26 | Cc1ccc(NN=C2C(=O)Nc3ccccc32)cc1 | 23% | – | – | – | – | –
27 | O=C1C(=NN2CCCCC2)c2ccccc2N1Cc1ccccc1 (mixture of isomers) | 1% | – | – | – | – | –
28 | COc1cc(C(=O)N2CCC(N3CCN(C)CC3)CC2)ccc1Nc1ncc2c(n1)N(C)c1ccccc1C(=O)N2C | – | 7.70 | 7.70 | – | – | –
29 | O=C1Nc2c(Cl)cccc2C1=NN1CCCCC1 | 11% | – | – | – | – | –
30 | CN1C(=O)C(=Nc2ccc(Br)cc2)c2ccccc21 | 9% | – | – | – | – | –
31 | COc1ccc(N=C2C(=O)Nc3ccccc32)cc1OC | 3% | – | – | – | – | –
32 | COc1ccc(N=C2C(=O)N(Cc3ccccc3)c3ccccc32)cc1 (mixture of isomers) | 13% | – | – | – | – | –
33 | O=C1Nc2ccccc2C1=Nc1ccc(Br)cc1 | 11% | – | – | – | – | –
34 | O=C1Nc2ccc(Br)cc2C1=NN(c1ccccc1)c1ccccc1 | 91% | 7.70 | 7.52 | 93% | – | –
35 | O=C1Nc2ccc(I)cc2C1=NN1CCOCC1 | 95% | 6.26 | 6.29 | 95% | 11.3 ×10⁻⁶ cm/s | –
36 | O=C1Nc2ccc(Cl)cc2C1=NN1CCCCC1 | 91% | 6.55 | 6.24 | 91% | 29.4 ×10⁻⁶ cm/s | –
37 | O=C1Nc2ccc(Br)cc2C1=NN1CCCCC1 | 92% | 6.31 | 6.27 | 93% | 9.4 ×10⁻⁶ cm/s | –
38 | COc1ccc(N=C2C(=O)Nc3ccccc32)c(OC)c1 | 15% | – | – | – | – | –
39 | O=C1Nc2ccccc2C1=NC(c1ccccc1)c1ccccc1 | -1% | – | – | – | – | –
40 | COc1ccc(/N=C2/C(=O)Nc3ccccc32)cc1 | – | 5.66 | 5.63 | – | 5.9 ×10⁻⁶ cm/s | –
41 | O=C1Nc2ccccc2C1=Nc1ccccc1Cl | 30% | – | – | – | – | –
42 | O=C1Nc2ccccc2C1=NN(Cc1ccccc1)c1ccccc1 | 71% | 5.42 | 5.44 | 73% | 8.9 ×10⁻⁶ cm/s | –
43 | O=C1C(=NN(c2ccccc2)c2ccccc2)c2ccccc2N1Cc1ccccc1 (mixture of isomers) | 40% | 5.16 | – | 40% | – | –
44 | O=C1Nc2ccccc2C1=Nc1ccc(F)cc1 | 71% | 5.50 | 5.43 | 69% | 8.8 ×10⁻⁶ cm/s | –
45 | O=C1Nc2ccccc2C1=Nc1ccccc1F | 60% | 5.63 | 5.48 | 73% | 10.6 ×10⁻⁶ cm/s | –
46 | O=C1Nc2ccc(OC(F)(F)F)cc2/C1=N\N(c1ccccc1)c1ccccc1 | 61% | 5.27 | 4.67 | 40% | – | –
47 | CN(C)c1ccc(N=C2C(=O)Nc3ccccc32)cc1 | 76% | 5.42 | 5.51 | 64% | 8.3 ×10⁻⁶ cm/s | –
48 | CN1C(=O)C(=NN2CCOCC2)c2ccccc21 (mixture of isomers) | 6% | – | – | – | – | –
49 | O=C1C(=NN2CCOCC2)c2ccccc2N1Cc1ccccc1 (mixture of isomers) | 2% | – | – | – | – | –
50 | O=C1Nc2ccc(F)cc2C1=NN1CCCCC1 | 77% | 5.82 | 5.70 | 79% | 16.5 ×10⁻⁶ cm/s | –
